7 compounds from US4689333A, “2-(2-pyridylmethylthio (sulfinyl)) benzimidazoles” (Takeda Chemical Industries, Ltd., priority 1984, dated 1987) can be followed below.

The first data set can be described thus: Toxicity, oral administration to mice. It counts as in vivo. The note with it: even in a dose of 2000 mg/kg.
For `Cc1c(OCC(F)(F)C(F)(F)F)ccnc1C[S+]([O-])c1nc2ccccc2[nH]1` (centres unmarked) [2-[3-methyl-4-(2,2,3,3,3-pentafluoropropoxy)pyrid-2-yl]methylsulfinylbenzimidazole], the “fatal effect on oral administration” value is reported as “no fatal effect”.

Another data set can be described thus: Anti-ulcer action: indomethacin-induced gastric antral ulcer in rats. It counts as in vivo, Male Sprague-Dawley rats. The following applies: Rattus norvegicus, po, 5 h, p.o., 30 min before indomethacin 30 mg/kg s.c., 6 rats per group, doses 1, 3, 10 and 30 mg/kg, read-out: Anti-ulcer action ID50. From the text: As the models of gastrointestinal ulcers, restraint and water-immersion stress-induced ulcer, indomethacin-induced ulcer and ethanol-induced gastric mucosal lesions have been used. However, as a model mimicking human gastric ulcer, indomethacin-induced gastric antral ulcer was reported in "Gastroenterology" (Satoh et al. 81, p. 719, 1981), which is considered to be of value as an experimental model. Therefore, the following are data of anti-ulcer actions of the object compounds (I) and of some representable known compounds, on the ulcer model in the above-mentioned literature reference.
Male Sprague-Dawley rats of 7-weeks old were fasted for 24 hours. These animals were administered test compounds into stomach by using a gastric tube. After 30 minutes, indomethacin, 30 mg/kg subcutaneously, was administered. During 30-90 minutes after the administration of indomethacin, these animals had free access to chow pellets (Japan Clea, CE-2). At 5 hours after the administration of indomethacin, 1 ml of 1% Evans blue was injected to the animals via the tail vein, followed by sacrificing these animals with carbon dioxide gas. The stomach was removed together with the lower part of esophagus and the duodenum. The esophagus was clipped, 10 ml of 1% formalin solution was instilled into the stomach from the duodenum, and then the duodenum was clipped. The whole stomach was immersed in 1% formalin solution. About 15 minutes later, the stomachs were opened along the greater curvature. The area of the lesions which occurred in the gastric antral mucosa was measured under a dissecting microscope with a square-grid eye piece (x10). The sum total of the individual lesions in each animal was measured, and the average value per group was calculated. Based on the difference between the average value of each group and that of the control group, the inhibition rate was determined. The test compound and indomethahacin were suspended in a 5% gum arabic solution, respectively and administered in a volume of 2 ml/kg.
^(a) Using 6 rats per group, each of the test compounds was
administered in a dose of 1, 3, 10 and 30 mg/kg to determine ID50.
Turning to `[O-][S+](Cc1cc(OCC(F)(F)C(F)F)ccn1)c1nc2ccccc2[nH]1` (centres unmarked), the ED50 worked out at 1.3 mg/kg.

In the case of `[O-][S+](Cc1cc(OCC(F)(F)F)ccn1)c1nc2ccccc2[nH]1` (centres unmarked) [R^1=H, R^2=H, R^3=H, R^4=CH2 CF3, n=1], the ED50 stood at 2.4 mg/kg.

With `[O-][S+](Cc1cc(OCC(F)(F)C(F)(F)F)ccn1)c1nc2ccccc2[nH]1` (centres unmarked), the ED50 came to 1.3 mg/kg.

Turning to `Cc1c(OCC(F)(F)C(F)(F)F)ccnc1C[S+]([O-])c1nc2ccccc2[nH]1` (centres unmarked) [2-[3-methyl-4-(2,2,3,3,3-pentafluoropropoxy)pyrid-2-yl]methylsulfinylbenzimidazole], the ED50 was < 1 mg/kg.

As for `Cc1c(OCC(F)(F)F)ccnc1C[S+]([O-])c1nc2ccccc2[nH]1` (centres unmarked) [R^1=H, R^2=CH3, R^3=H, R^4=CH2 CF3, n=1, 2-[3methyl-4-(2,2,2-trifluoroethoxy)-pyrid-2-yl]methylsulfinylbenzimidazo], the ED50 is < 1 mg/kg.

Take `Cc1c(OCC(F)(F)C(F)(F)F)ccnc1CSc1nc2ccccc2[nH]1` [2-[3-methyl-4-(2,2,3,3,3-pentafluoropropoxy)-pyrid-2-yl]methylthiobenzimidazole]: the ED50 was found to be 3.7 mg/kg.

On to `Cc1c(OCC(F)(F)C(F)F)ccnc1C[S+]([O-])c1nc2ccccc2[nH]1` (centres unmarked), for which the ED50 is < 1 mg/kg.
